In patent US10618918B2, “Substituted boronic acids as antimicrobials” (priority 2015, dated 2020):

Tests used:
KP1009 CTX-M-15 = test: Aztreonam potentiation (MPC@4), strain KP1009 CTX-M-15; details: minimum BLI concentration inhibiting growth with aztreonam 4 μg/mL; tested up to 40 μg/mL
KP1005 CTX-M-14 = test: Tigemonam potentiation (MPC@4), strain KP1005 CTX-M-14; details: minimum BLI concentration inhibiting growth with tigemonam 4 μg/mL; tested up to 40 μg/mL
ec302 TEM-10 = test: Aztreonam potentiation (MPC@4), strain ec302 TEM-10; details: minimum BLI concentration inhibiting growth with aztreonam 4 μg/mL; tested up to 40 μg/mL
ECL1002 = test: Aztreonam potentiation (MPC@4), strain ECL1002; details: minimum BLI concentration inhibiting growth with aztreonam 4 μg/mL; tested up to 40 μg/mL
EC1010 CMY-6 = test: Aztreonam potentiation (MPC@4), strain EC1010 CMY-6; details: minimum BLI concentration inhibiting growth with aztreonam 4 μg/mL; tested up to 40 μg/mL
KP1004 KPC-2 [1] = test: Aztreonam potentiation (MPC@4), strain KP1004 KPC-2; details: minimum BLI concentration inhibiting growth with aztreonam 4 μg/mL; tested up to 40 μg/mL
KP1004 KPC-2 [2] = test: Biapenem potentiation (MPC@1), strain KP1004 KPC-2; type: cell-based; details: minimum BLI concentration inhibiting growth with biapenem 1 μg/mL; tested up to 40 μg/mL
Experimental: (§1) Biapenem was present in the test medium at 1 μg/mL. […] Table 3 summarizes the BLI potency of biapenem potentiation (MPC@1) for two strains overexpressing class A (KPC) and class D (OXA-48) carbapenemases. Biapenem MIC for each strain is also shown.

PAM1032/KPC-2 = test: Biapenem potentiation MPC64 in PAM1032/KPC-2 (efflux proficient, overexpresses MexAB-OprM); type: cell-based, Pseudomonas aeruginosa; details: BLI concentration decreasing biapenem MIC 64-fold, from 32 μg/ml to 0.5 μg/ml; efflux proficient strain
Experimental: (§2) Efflux of BLIs from Pseudomonas aeruginosa by the MexAB-OprM efflux pump was also evaluated. The plasmid expressing the gene encoding KPC-2 was introduced into two strains of P. aeruginosa, PAM1032 and PAM 1154 that overexpressed or lacked MexAB-OprM, respectively. […] Potency of BLIs to potentiate biapenem in these strains was determined.

ec308 SHV-5 = test: Aztreonam potentiation (MPC@4), strain ec308 SHV-5; details: minimum BLI concentration inhibiting growth with aztreonam 4 μg/mL; tested up to 40 μg/mL
KP1010 SHV-12 = test: Aztreonam potentiation (MPC@4), strain KP1010 SHV-12; details: minimum BLI concentration inhibiting growth with aztreonam 4 μg/mL; tested up to 40 μg/mL
KP1086 OXA-48 = test: Biapenem potentiation (MPC@1), strain KP1086 OXA-48; type: cell-based; details: minimum BLI concentration inhibiting growth with biapenem 1 μg/mL; tested up to 40 μg/mL
Experimental: as §1

[3] = target: purified class A, C and D enzymes (β-lactamases) (Escherichia coli, UniProt Q9L5C7); test: biochemical; type: biochemical; details: purified CTX-M-14; nitrocefin (NCF) as reporter substrate
[4] = target: purified class A, C and D enzymes (β-lactamases) (Enterobacter cloacae, UniProt P05364); test: biochemical; type: biochemical; details: purified P99; nitrocefin (NCF) as reporter substrate
[5] = target: T1, purified class A, C and D enzymes (β-lactamases) (UniProt P0AD64, L31Q/G234S/E235K, species not given); test: biochemical; type: biochemical; details: purified SHV-12; nitrocefin (NCF) as reporter substrate; read-out: Ki (SHV-12, NCF)
T1 construct: Ki (SHV-12, NCF), uM; other: purified SHV-12; nitrocefin (NCF) as reporter substrate
T1 sequence (P0AD64 1-286 L31Q/G234S/E235K): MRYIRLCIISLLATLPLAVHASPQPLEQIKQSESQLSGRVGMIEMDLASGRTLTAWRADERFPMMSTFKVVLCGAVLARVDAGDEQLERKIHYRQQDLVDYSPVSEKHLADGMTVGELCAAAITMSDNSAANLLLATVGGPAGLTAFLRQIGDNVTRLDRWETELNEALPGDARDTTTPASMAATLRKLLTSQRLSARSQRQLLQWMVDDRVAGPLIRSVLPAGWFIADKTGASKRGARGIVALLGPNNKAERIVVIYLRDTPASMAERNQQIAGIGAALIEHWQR

[6] = target: purified class A, C and D enzymes (β-lactamases) (Klebsiella pneumoniae, UniProt Q9F663); test: biochemical; type: biochemical; details: purified KPC-2; nitrocefin (NCF) as reporter substrate
[7] = target: purified class A, C and D enzymes (β-lactamases) (Klebsiella pneumoniae, UniProt Q6XEC0); test: biochemical; type: biochemical; details: purified OXA-48; nitrocefin (NCF) as reporter substrate
PAM1154/KPC-2 = test: Biapenem potentiation MPC64 in PAM1154/KPC-2 (efflux deficient, lacks MexAB-OprM); type: cell-based, Pseudomonas aeruginosa; details: BLI concentration decreasing biapenem MIC 64-fold, from 32 μg/ml to 0.5 μg/ml; efflux deficient strain
Experimental: as §2

AB1054 OXA-23 = test: Meropenem potentiation (MPC@8), strain AB1054 OXA-23; type: cell-based, Acinetobacter baumannii; details: minimum BLI concentration inhibiting growth with meropenem 8 μg/mL; tested up to 20 μg/mL
AB1053 OXA-72 = test: Meropenem potentiation (MPC@8), strain AB1053 OXA-72; type: cell-based, Acinetobacter baumannii; details: minimum BLI concentration inhibiting growth with meropenem 8 μg/mL; tested up to 20 μg/mL
[8] = target: T2, purified class A, C and D enzymes (β-lactamases) (Pseudomonas aeruginosa, UniProt P24735); test: biochemical; type: biochemical; details: purified Pa-AmpC; nitrocefin (NCF) as reporter substrate; read-out: Ki (Pa-AmpC, NCF)
T2 construct: rows headed: Ki (Pa-AmpC, NCF), uM; other: purified Pa-AmpC; nitrocefin (NCF) as reporter substrate

[9] = target: T3, purified class A, C and D enzymes (β-lactamases) (Acinetobacter baumannii, UniProt Q9L4P2); test: biochemical; type: biochemical; details: purified OXA-23; nitrocefin (NCF) as reporter substrate
T3 construct: rows headed: Ki (OXA-23, NCF), uM; other: purified OXA-23; nitrocefin (NCF) as reporter substrate
T3 sequence (Q9L4P2 whole entry): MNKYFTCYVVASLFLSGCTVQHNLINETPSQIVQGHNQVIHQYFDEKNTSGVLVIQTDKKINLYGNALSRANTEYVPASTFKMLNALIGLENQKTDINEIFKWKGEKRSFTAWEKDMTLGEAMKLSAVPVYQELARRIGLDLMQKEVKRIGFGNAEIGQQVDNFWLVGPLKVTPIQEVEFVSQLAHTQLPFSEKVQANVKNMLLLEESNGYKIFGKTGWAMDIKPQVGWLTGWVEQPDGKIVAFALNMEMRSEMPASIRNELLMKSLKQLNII

purified class A, C and D enzymes (β-lactamases) (Escherichia coli, UniProt Q9L5C7), sequence (Q9L5C7 entry or part of it): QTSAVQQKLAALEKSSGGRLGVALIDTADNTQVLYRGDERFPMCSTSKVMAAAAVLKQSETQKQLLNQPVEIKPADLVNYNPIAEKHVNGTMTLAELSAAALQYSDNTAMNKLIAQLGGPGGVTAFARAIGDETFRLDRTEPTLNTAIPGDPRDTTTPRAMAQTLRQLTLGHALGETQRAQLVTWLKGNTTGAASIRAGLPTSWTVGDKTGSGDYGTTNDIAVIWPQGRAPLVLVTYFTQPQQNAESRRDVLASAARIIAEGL
purified class A, C and D enzymes (β-lactamases) (Enterobacter cloacae, UniProt P05364), sequence (P05364 21-381): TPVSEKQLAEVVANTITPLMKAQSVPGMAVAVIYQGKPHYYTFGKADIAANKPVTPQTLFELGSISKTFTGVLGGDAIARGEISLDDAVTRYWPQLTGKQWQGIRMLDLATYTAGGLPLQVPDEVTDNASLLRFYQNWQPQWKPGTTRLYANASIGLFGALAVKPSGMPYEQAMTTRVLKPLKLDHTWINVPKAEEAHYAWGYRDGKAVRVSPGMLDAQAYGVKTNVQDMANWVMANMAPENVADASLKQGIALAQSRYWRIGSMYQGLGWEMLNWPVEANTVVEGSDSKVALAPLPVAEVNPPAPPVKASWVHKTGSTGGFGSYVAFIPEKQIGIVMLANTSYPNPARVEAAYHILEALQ
T2 sequence (P24735 whole entry): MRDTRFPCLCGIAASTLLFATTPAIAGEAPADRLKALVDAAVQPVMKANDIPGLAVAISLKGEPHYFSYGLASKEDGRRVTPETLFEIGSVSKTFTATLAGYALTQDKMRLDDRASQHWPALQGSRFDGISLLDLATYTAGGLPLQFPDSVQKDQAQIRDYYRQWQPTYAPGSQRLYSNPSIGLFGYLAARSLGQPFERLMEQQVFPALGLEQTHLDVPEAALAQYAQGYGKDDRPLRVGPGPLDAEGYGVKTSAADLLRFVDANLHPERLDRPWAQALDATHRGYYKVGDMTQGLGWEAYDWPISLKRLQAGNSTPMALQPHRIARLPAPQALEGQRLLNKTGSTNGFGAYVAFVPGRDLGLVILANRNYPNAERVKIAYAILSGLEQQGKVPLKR

Structure (SMILES)	AZT MPC4 CTX-M-15 KP1009 (KP1009 CTX-M-15)	TIG MPC4 CTX-M-14 KP1005 (KP1005 CTX-M-14)	AZT MPC4 TEM-10 ec302 (ec302 TEM-10)	AZT MPC4 ECL1002 (ECL1002)	AZT MPC4 CMY-6 EC1010 (EC1010 CMY-6)	AZT MPC4 KPC-2 KP1004 (KP1004 KPC-2 [1])	BPM MPC1 KP1004 KPC-2 (KP1004 KPC-2 [2])	PAM1032/KPC-2 Biapenem MPC64 (PAM1032/KPC-2)	AZT MPC4 SHV-5 ec308 (ec308 SHV-5)	AZT MPC4 SHV-12 KP1010 (KP1010 SHV-12)	BPM MPC1 OXA-48 KP1086 (KP1086 OXA-48)	Ki (CTX-M-14, NCF), uM [3]	Ki (P99, NCF), uM [4]	Ki [5] [nM]	Ki (KPC-2, NCF), uM [6]	Ki (OXA-48, NCF), uM [7]	PAM1154/KPC-2 Biapenem MPC64 (PAM1154/KPC-2)	further results
O=C(Cc1cccs1)NC1CB(O)Oc2c(C(=O)O)cccc21 (stereo not shown) [Compound 1, 2-HYDROXY-4-(2-(THIOPHEN-2-YL)ACETAMIDO)-3,4-DIHYDRO-2H-BENZO[E][1,2]OXABORININE-8-CARBOXYLIC ACID]	X (X = MPC@4 ≤ 5 μg/mL)	X (X = MPC@4 ≤ 5 μg/mL)	X (X = MPC@4 ≤ 5 μg/mL)	Y (Y = 5 μg/mL < MPC@4 ≤ 20 μg/mL)	X (X = MPC@4 ≤ 5 μg/mL)	X (X = MPC@4 ≤ 5 μg/mL)	X (X = MPC@1 ≤ 5 μg/mL)	40	X (X = MPC@4 ≤ 5 μg/mL)	X (X = MPC@4 ≤ 5 μg/mL)	Y (Y = 5 μg/mL < MPC@1 ≤ 20 μg/mL)	X (X = Ki ≤ 0.1 μM)	X (X = Ki ≤ 0.1 μM)	< 100	X (X = Ki ≤ 0.1 μM)	X (X = Ki ≤ 0.1 μM)	2.5	
Nc1nnc(C(=O)NC2CB(O)Oc3c(C(=O)O)cccc32)s1 (stereo not shown) [Compound 2, 4-(5-AMINO-1,3,4-THIADIAZOLE-2-CARBOXAMIDO)-2-HYDROXY-3,4-DIHYDRO-2H-BENZO[E][1,2]OXABORININE-8-CARBOXYLIC ACID]	X (X = MPC@4 ≤ 5 μg/mL)	X (X = MPC@4 ≤ 5 μg/mL)	X (X = MPC@4 ≤ 5 μg/mL)	X (X = MPC@4 ≤ 5 μg/mL)	X (X = MPC@4 ≤ 5 μg/mL)	X (X = MPC@4 ≤ 5 μg/mL)	X (X = MPC@1 ≤ 5 μg/mL)	20	X (X = MPC@4 ≤ 5 μg/mL)	X (X = MPC@4 ≤ 5 μg/mL)	X (X = MPC@1 ≤ 5 μg/mL)	X (X = Ki ≤ 0.1 μM)	X (X = Ki ≤ 0.1 μM)	< 100	X (X = Ki ≤ 0.1 μM)	X (X = Ki ≤ 0.1 μM)	1.25	
CSCC(=O)NC1CB(O)Oc2c(C(=O)O)cccc21 (stereo not shown) [Compound 3, 2-HYDROXY-4-(2-(METHYLTHIO)ACETAMIDO)-3,4-DIHYDRO-2H-BENZO[E][1.2]OXABORININE-8-CARBOXYLIC ACID]	X (X = MPC@4 ≤ 5 μg/mL)	X (X = MPC@4 ≤ 5 μg/mL)	X (X = MPC@4 ≤ 5 μg/mL)	X (X = MPC@4 ≤ 5 μg/mL)	X (X = MPC@4 ≤ 5 μg/mL)	X (X = MPC@4 ≤ 5 μg/mL)	X (X = MPC@1 ≤ 5 μg/mL)	20	X (X = MPC@4 ≤ 5 μg/mL)	X (X = MPC@4 ≤ 5 μg/mL)	X (X = MPC@1 ≤ 5 μg/mL)	X (X = Ki ≤ 0.1 μM)	X (X = Ki ≤ 0.1 μM)	< 100	X (X = Ki ≤ 0.1 μM)	X (X = Ki ≤ 0.1 μM)	2.5	MPM MPC8 AB1054 OXA-23 (AB1054 OXA-23): Z (Z = MPC@1 > 20 μg/mL); MPM MPC8 AB1053 OXA-72 (AB1053 OXA-72): Y (Y = 5 μg/mL < MPC@1 ≤ 20 μg/mL); Ki [8]: < 100 nM; Ki [9]: < 100 nM
